Reference: ChEMBL document CHEMBL5505958, “Optimization of sequence and chiral content enhances therapeutic potential of tilapia piscidin peptides” (Eur J Med Chem, 2024)
Values after ≈ are worked out from the molar mass of the structure shown. Active and inactive are the calls of the source. No cut-off for these calls is given here.

What was measured:
[1] = tested on: Escherichia coli; test: Antibacterial activity against Escherichia coli 10675 assessed as inhibition of bacterial growth incubated for 16 to 20 hrs; type: functional; details: time 16-20 hrs
[2] = tested on: Klebsiella pneumoniae; test: Antibacterial activity against Klebsiella pneumoniae 10692 assessed as inhibition of bacterial growth incubated for 16 to 20 hrs; type: functional; details: time 16-20 hrs
[3] = tested on: Acinetobacter baumannii; test: Antibacterial activity against Acinetobacter baumannii 10591 assessed as inhibition of bacterial growth incubated for 16 to 20 hrs; type: functional; details: time 16-20 hrs
[4] = tested on: Klebsiella aerogenes; test: Antibacterial activity against Enterobacter aerogenes 15630 assessed as inhibition of bacterial growth incubated for 16 to 20 hrs; type: functional; details: time 16-20 hrs
[5] = tested on: Klebsiella oxytoca; test: Antibacterial activity against Klebsiella oxytoca 13985 assessed as inhibition of bacterial growth incubated for 16 to 20 hrs; type: functional; details: time 16-20 hrs
[6] = tested on: Salmonella typhimurium; test: Antibacterial activity against Salmonella typhimurium DT104 assessed as inhibition of bacterial growth incubated for 16 to 20 hrs; type: functional, Salmonella enterica subsp. enterica serovar Typhimurium; details: Salmonella enterica, time 16-20 hrs
[7] = tested on: Salmonella enterica; test: Antibacterial activity against Salmonella enterica 15455 assessed as inhibition of bacterial growth incubated for 16 to 20 hrs; type: functional; details: time 16-20 hrs
[8] = tested on: Vibrio vulnificus; test: Antibacterial activity against Vibrio vulnificus 204 assessed as inhibition of bacterial growth incubated for 16 to 20 hrs; type: functional; details: time 16-20 hrs
[9] = tested on: Yersinia enterocolitica; test: Antibacterial activity against Yersinia enterocolitica 13999 assessed as inhibition of bacterial growth incubated for 16 to 20 hrs; type: functional; details: time 16-20 hrs
[10] = tested on: Klebsiella pneumoniae; test: Antibacterial activity against Klebsiella pneumoniae BAA 2473 assessed as inhibition of bacterial growth incubated for 16 to 20 hrs; type: functional; details: time 16-20 hrs
[11] = tested on: Staphylococcus aureus; test: Antibacterial activity against Staphylococcus aureus 10780 assessed as inhibition of bacterial growth incubated for 16 to 20 hrs; type: functional; details: time 16-20 hrs
[12] = tested on: Staphylococcus haemolyticus; test: Antibacterial activity against Staphylococcus haemolyticus 15237 assessed as inhibition of bacterial growth incubated for 16 to 20 hrs; type: functional; details: time 16-20 hrs
[13] = tested on: Enterococcus faecium; test: Antibacterial activity against Enterococcus faecium 10067 assessed as inhibition of bacterial growth incubated for 16 to 20 hrs; type: functional; details: time 16-20 hrs
[14] = tested on: Enterococcus faecalis; test: Antibacterial activity against Enterococcus faecalis 10066 assessed as inhibition of bacterial growth incubated for 16 to 20 hrs; type: functional; details: time 16-20 hrs
[15] = tested on: Rhizopus arrhizus; test: Antifungal activity against Rhizopus oryzae 34550 assessed as inhibition of fungal growth incubated for 16 to 20 hrs; type: functional; details: time 16-20 hrs
[16] = tested on: Escherichia coli; test: Bactericidal activity against Escherichia coli 10675 assessed as inhibition of bacterial growth incubated for 16 to 20 hrs; type: functional; details: time 16-20 hrs
[17] = tested on: Klebsiella pneumoniae; test: Bactericidal activity against Klebsiella pneumoniae 10692 assessed as inhibition of bacterial growth incubated for 16 to 20 hrs; type: functional; details: time 16-20 hrs
[18] = tested on: Acinetobacter baumannii; test: Bactericidal activity against Acinetobacter baumannii 10591 assessed as inhibition of bacterial growth incubated for 16 to 20 hrs; type: functional; details: time 16-20 hrs
[19] = tested on: Klebsiella aerogenes; test: Bactericidal activity against Enterobacter aerogenes 15630 assessed as inhibition of bacterial growth incubated for 16 to 20 hrs; type: functional; details: time 16-20 hrs
[20] = tested on: Klebsiella oxytoca; test: Bactericidal activity against Klebsiella oxytoca 13985 assessed as inhibition of bacterial growth incubated for 16 to 20 hrs; type: functional; details: time 16-20 hrs
[21] = tested on: Salmonella typhimurium; test: Bactericidal activity against Salmonella typhimurium DT104 assessed as inhibition of bacterial growth incubated for 16 to 20 hrs; type: functional, Salmonella enterica subsp. enterica serovar Typhimurium; details: Salmonella enterica, time 16-20 hrs
[22] = tested on: Salmonella enterica; test: Bactericidal activity against Salmonella enterica 15455 assessed as inhibition of bacterial growth incubated for 16 to 20 hrs; type: functional; details: time 16-20 hrs
[23] = tested on: Vibrio vulnificus; test: Bactericidal activity against Vibrio vulnificus 204 assessed as inhibition of bacterial growth incubated for 16 to 20 hrs; type: functional; details: time 16-20 hrs
[24] = tested on: Yersinia enterocolitica; test: Bactericidal activity against Yersinia enterocolitica 13999 assessed as inhibition of bacterial growth incubated for 16 to 20 hrs; type: functional; details: time 16-20 hrs
[25] = tested on: Klebsiella pneumoniae; test: Bactericidal activity against Klebsiella pneumoniae BAA 2473 assessed as inhibition of bacterial growth incubated for 16 to 20 hrs; type: functional; details: time 16-20 hrs
[26] = tested on: Staphylococcus aureus; test: Bactericidal activity against Staphylococcus aureus 10780 assessed as inhibition of bacterial growth incubated for 16 to 20 hrs; type: functional; details: time 16-20 hrs
[27] = tested on: Staphylococcus haemolyticus; test: Bactericidal activity against Staphylococcus haemolyticus 15237 assessed as inhibition of bacterial growth incubated for 16 to 20 hrs; type: functional; details: time 16-20 hrs
[28] = tested on: Enterococcus faecium; test: Bactericidal activity against Enterococcus faecium 10067 assessed as inhibition of bacterial growth incubated for 16 to 20 hrs; type: functional; details: time 16-20 hrs
[29] = tested on: Enterococcus faecalis; test: Bactericidal activity against Enterococcus faecalis 10066 assessed as inhibition of bacterial growth incubated for 16 to 20 hrs; type: functional; details: time 16-20 hrs
[30] = tested on: Rhizopus arrhizus; test: Fungicidal activity against Rhizopus oryzae 34550 assessed as inhibition of fungal growth incubated for 72 hrs; type: functional
[31] = tested on: Escherichia coli; test: Antibacterial activity against Escherichia coli 10675 assessed as inhibition of bacterial growth incubated for 16 to 20 hrs in presence of human serum; type: functional; details: time 16-20 hrs
[32] = tested on: Acinetobacter baumannii; test: Antibacterial activity against Acinetobacter baumannii 10591 assessed as inhibition of bacterial growth incubated for 16 to 20 hrs in presence of human serum; type: functional; details: time 16-20 hrs
[33] = tested on: Pseudomonas aeruginosa; test: Antibacterial activity against Pseudomonas aeruginosa 19660 assessed as inhibition of bacterial growth incubated for 16 to 20 hrs in presence of human serum; type: functional; details: time 16-20 hrs
[34] = tested on: Klebsiella oxytoca; test: Antibacterial activity against Klebsiella oxytoca 13985 assessed as inhibition of bacterial growth incubated for 16 to 20 hrs in presence of human serum; type: functional; details: time 16-20 hrs
[35] = tested on: Salmonella typhimurium; test: Antibacterial activity against Salmonella typhimurium DT104 assessed as inhibition of bacterial growth incubated for 16 to 20 hrs in presence of human serum; type: functional, Salmonella enterica subsp. enterica serovar Typhimurium; details: Salmonella enterica, time 16-20 hrs
[36] = tested on: Salmonella enterica; test: Antibacterial activity against Salmonella enterica 15455 assessed as inhibition of bacterial growth incubated for 16 to 20 hrs in presence of human serum; type: functional; details: time 16-20 hrs
[37] = tested on: Vibrio vulnificus; test: Antibacterial activity against Vibrio vulnificus 204 assessed as inhibition of bacterial growth incubated for 16 to 20 hrs in presence of human serum; type: functional; details: time 16-20 hrs
[38] = tested on: Klebsiella pneumoniae; test: Antibacterial activity against Klebsiella pneumoniae TL 297 assessed as inhibition of bacterial growth incubated for 16 to 20 hrs in presence of human serum; type: functional; details: time 16-20 hrs
[39] = tested on: Enterococcus faecium; test: Antibacterial activity against Enterococcus faecium 10067 assessed as inhibition of bacterial growth incubated for 16 to 20 hrs in presence of human serum; type: functional; details: time 16-20 hrs
[40] = tested on: Escherichia coli; test: Bactericidal activity against Escherichia coli 10675 assessed as inhibition of bacterial growth incubated for 16 to 20 hrs in presence of human serum; type: functional; details: time 16-20 hrs
[41] = tested on: Acinetobacter baumannii; test: Bactericidal activity against Acinetobacter baumannii 10591 assessed as inhibition of bacterial growth incubated for 16 to 20 hrs in presence of human serum; type: functional; details: time 16-20 hrs
[42] = tested on: Pseudomonas aeruginosa; test: Bactericidal activity against Pseudomonas aeruginosa 19660 assessed as inhibition of bacterial growth incubated for 16 to 20 hrs in presence of human serum; type: functional; details: time 16-20 hrs
[43] = tested on: Klebsiella oxytoca; test: Bactericidal activity against Klebsiella oxytoca 13985 assessed as inhibition of bacterial growth incubated for 16 to 20 hrs in presence of human serum; type: functional; details: time 16-20 hrs
[44] = tested on: Salmonella typhimurium; test: Bactericidal activity against Salmonella typhimurium DT104 assessed as inhibition of bacterial growth incubated for 16 to 20 hrs in presence of human serum; type: functional, Salmonella enterica subsp. enterica serovar Typhimurium; details: Salmonella enterica, time 16-20 hrs
[45] = tested on: Salmonella enterica; test: Bactericidal activity against Salmonella enterica 15455 assessed as inhibition of bacterial growth incubated for 16 to 20 hrs in presence of human serum; type: functional; details: time 16-20 hrs
[46] = tested on: Vibrio vulnificus; test: Bactericidal activity against Vibrio vulnificus 204 assessed as inhibition of bacterial growth incubated for 16 to 20 hrs in presence of human serum; type: functional; details: time 16-20 hrs
[47] = tested on: Klebsiella pneumoniae; test: Bactericidal activity against Klebsiella pneumoniae TL 297 assessed as inhibition of bacterial growth incubated for 16 to 20 hrs in presence of human serum; type: functional; details: time 16-20 hrs
[48] = tested on: Enterococcus faecium; test: Bactericidal activity against Enterococcus faecium 10067 assessed as inhibition of bacterial growth incubated for 16 to 20 hrs in presence of human serum; type: functional; details: time 16-20 hrs
[49] = tested on: Rhizopus arrhizus; test: Fungicidal activity against Rhizopus oryzae 34550 assessed as inhibition of fungal growth incubated for 16 to 20 hrs in presence of human serum; type: functional; details: time 16-20 hrs
[50] = tested on: Klebsiella pneumoniae; test: Antimicrobial activity against drug-resistant Klebsiella pneumoniae BAA 2473 infected in C57BL/6 mouse assessed as reduction in bacterial load at 5 mg/kg, po administered for 2 hrs and measured at 24 hrs; type: functional, organism-based; details: time 26.0 hrs

Q: What does the source list for `C[C@H]1c2cccc(O)c2C(=O)C2=C(O)[C@]3(O)C(=O)C(C(N)=O)=C(O)[C@@H](N(C)C)[C@@H]3[C@@H](O)[C@@H]21` [DOXYCYCLINE ANHYDROUS]?
A: MIC [1]: 3.13 µM (≈ 1.39 µg/mL); MIC [2]: 3.13 µM (≈ 1.39 µg/mL); MIC [3]: 0.78 µM (≈ 0.347 µg/mL); MIC [4]: 3.13 µM (≈ 1.39 µg/mL); MIC [5]: 6.25 µM (≈ 2.78 µg/mL); MIC [6]: 6.25 µM (≈ 2.78 µg/mL); MIC [7]: 3.13 µM (≈ 1.39 µg/mL); MIC [8]: < 0.39 µM; MIC [9]: 3.13 µM (≈ 1.39 µg/mL); MIC [10]: 50 µM (≈ 22.2 µg/mL); MIC [11]: 0.2 µM (≈ 0.0889 µg/mL); MIC [12]: < 1.56 µM; MIC [13]: 0.2 µM (≈ 0.0889 µg/mL); MIC [14]: < 1.56 µM; MIC [15]: > 100 µM; MBC [16]: 100 µM (≈ 44.4 µg/mL); MBC [17]: 100 µM (≈ 44.4 µg/mL); MBC [18]: 1.56 µM (≈ 0.693 µg/mL); MBC [19]: 200 µM (≈ 88.9 µg/mL); MBC [20]: 200 µM (≈ 88.9 µg/mL); MBC [21]: 6.25 µM (≈ 2.78 µg/mL); MBC [22]: > 100 µM; MBC [23]: < 0.39 µM; MBC [24]: < 1.56 µM; MBC [25]: 100 µM (≈ 44.4 µg/mL); MBC [26]: 12.5 µM (≈ 5.56 µg/mL); MBC [27]: < 1.56 µM; MBC [28]: 6.25 µM (≈ 2.78 µg/mL); MBC [29]: 6.25 µM (≈ 2.78 µg/mL); MFC [30]: > 100 µM; MIC [31]: 3.13 µM; MIC [32]: 1.56 µM; MIC [33]: 6.25 µM; MIC [34]: 6.25 µM; MIC [35]: 12.5 µM; MIC [36]: 6.25 µM; MIC [37]: < 0.39 µM; MIC [38]: 25 µM; MIC [39]: 0.39 µM; MBC [40]: 100 µM; MBC [41]: 6.25 µM; MBC [42]: 6.25 µM; MBC [43]: 100 µM; MBC [44]: > 100 µM; MBC [45]: > 100 µM; MBC [46]: < 0.39 µM; MBC [47]: 25 µM; MBC [48]: 12.5 µM; MFC [49]: 12.5 µM; Activity [50]: inactive
